Results published in ChEMBL document CHEMBL1141463, “In vitro anti-inflammatory activity of 3-O-methyl-flavones isolated from Siegesbeckia glabrescens” (Bioorg Med Chem Lett, 2008).
Activity calls are given as the source filed them. The calls are words filed in the database; no cut-off is given here.

How the values were obtained:
BV-2 [1] = assay: Inhibition of LPS-induced NO production in mouse BV2 cells; assay type: functional, cell-based
[2] = Peroxynitrite scavenging activity assessed as inhibition of DHR 123 oxidation; assay type: functional
BV-2 [3] = assay: Decrease in iNOS protein expression in LPS-activated mouse BV2 cells at 20 uM; assay type: functional, cell-based

Row | IC50 (BV-2 [1]) [µM] | SMILES | SC50 [2] [µM] | Activity (BV-2 [3])
1 |  | CC(C)(S)[C@@H](N)C(=O)O | 5.13 | 
2 | 13.2 | CNC(=N)NCCC[C@H](N)C(=O)O [TILARGININE] |  | 
3 | 3.8 | COc1c(-c2ccc(O)c(O)c2)oc2cc(O)cc(O)c2c1=O [3-O-METHYLQUERCETIN] | 0.77 | Active

Row | SMILES | IC50 (BV-2 [1]) [µM] | SC50 [2] [µM] | Activity (BV-2 [3])
4 | O=c1c(O)c(-c2ccc(O)c(O)c2)oc2cc(O)cc(O)c12 [QUERCETIN] | 29.6 |  | 
